Consider 4 molecules from patent publication EP1310250A1, “Use of the compound 2-methoxyphenyl-1-methyl-5P-methylbenzoyl-pyrrol-2-acetamido acetate for the production of an antiinflammatory drug with prevention of gastric hypersecretion and renal impairment” (MEDOSAN Ricerca S.r.l., priority 1997, dated 1999).

Values joined by “and” are separate entries in the source; they are usually repeats but may differ in a detail not shown here. Identical values can stand only once. Marks after values point to notes of the source that are not given here.

The test system of data set [1] is carrageenin-induced paw oedema. In words: Determination of ID50, carrageenin-induced paw oedema. It counts as in vivo, rat. As to conditions: five times the oral ID50 for oedema inhibition, 2 h after carrageenin. The procedure:
ID50, relative to the products under examination (considered in table 1), has been evaluated using the anti-inflammatory response to carrageenin-induced paw oedema (according to Wong et al, J Pharmacol Exp, 1973:1855; pages 127-138). The products, suspended in 1% CMC, were administered orally in a total volume of 5 ml/rat. 1 h later, 0.1 ml of 1% carrageenin sterile solution was injected into the hind subplantar aponeurosis. Volume of the paw was measured immediately prior to injection of the phlogogen and 2 h thereafter, by means of a plethysmograph. The percentage of inhibition of oedema was calculated as follows: 1 - ΔV treated/ΔV control x 100 [formula] where ΔV = final V - initial V.
(In general: The carrageenan paw model is a standard test of acute inflammation.)

Data set [2] concerns Adjuvant arthritis. Briefly: Adjuvant arthritis: joint inflammation and patellar bone erosion. Type of data set: in vivo, rats. The following applies: patellar bone mass; MED 15 25, 50, 100mg/kg, piroxicam 3mg/kg. The procedure:
The drugs were administered daily by oral gavage for 4 days (day 0-3); piroxicam and MED 15 were dissolved in 5% Gum arabic + 0.01% Tween 80, and administered in a volume of 0.5ml. Piroxicam was administered as 3mg/kg and MED 15 was administered as 25, 50 and 100mg/kg doses. Table 8 bis illustrating dosage regimes. L=left stifle joint, R=Right stifle joint.
Under halothane anaesthesia, rats received 200µg of heat-killed finely ground Mycobactyerium tubercolosis in 25µl (80mg/10ml sterile saline) injected intra-articulary into the left stifle joint. The contralateral joint received 25µl 0.9% sterile saline. Control animals received 25µl of 0.9% sterile saline in both knees. SGE 50µl microsyringes with a volume lock calibrated at 25µl were used with 30G stainless steel needles. Solutions were prepared sterile, and aseptic technique was used throughout, with sterilisation of syringes between groups.
The rats were killed by carbon dioxide suffocation. The body weight was noted and the skin overlying the stifle joints was divided and the joint diameters assessed in mm using Mitutoyo vernier callipers (530-312, 0.02mm).
The patellae were dissected, weighed (Sartorius, 0.01mg) and then immersed in 1ml digestion buffer (see below) to remove soft tissue.
Digestive buffer was prepared fresh to the following formula; disodium hydrogen orthophosphate 20mM, EDTA 1mM and diothiothreitol at 2mM. […]

The test system of data set [3] is isolated, perfused, immature rat stomach. Briefly: Antisecretive activity in vitro, isolated perfused immature rat stomach. As to conditions: agonist Histamine 10^-4 M, antagonist 10^-4 M. The source says:
Male Wistar rats, 250±10 g b.w. (Charles River, Calco, Como, Italy), quarantined for five days prior to the beginning of the trial and divided into groups of 3 animals per cage, were used for determination of gastric lesions and of ID50 determination. Immature male Wistar rats, 30-45 g b.w. (Harlan Nossan, Milano) were used for the determination of the antisecretory effect on isolated rat stomach. The guinea-pigs used were the Dunkin Hartley guinea-pigs (Harlan Nossan, Milano, Italy).
At the beginning, the isolated, perfused, immature rat stomach, treated externally with the study product, was used. We preferred to use the isolated stomach in toto rather than strips (B.R. No. 18, 19 and 20) in order not to exclude a section of the stomach (the antrum), unimportant for acid secretion but very important for the secretion of bicarbonates and bioactive peptides (b.r. No. 21, 22). The results were encouraging, since amtolmetin guacyl inhibited acid production stimulated by the three classic agonists (histamine, acetilcholine and gastrin) both using varying doses of agonist or varying doses of amtolmetin guacyl (Table 5).
The results are expressed as mean±S.E.

The test system of data set [4] is rat gastric mucosa. As to conditions: male, Wistar, in vivo, po, 4 days. As for the experimental part:
The animals entered in the trial, randomized and divided into groups of 6 rats each, were fasted for 16 h prior to treatment, with access to water ad libitum. They were re-fed 1 h after drug administration. The compound 2-methoxyphenyl-1-methyl-5p-methylbenzoyl-pyrrol-2-acetamido acetate and the other reference NSAIDs, suspended in 1% carboxymethylcellulose (CMC) solution, were orally administered by gastric gavage in a volume of 6ml/kg for four consecutive days. Controls received the vehicle in the same way as the treated animals. 4 h after the last administration the animals were killed by ether overdose; the stomachs were removed, rinsed with 10 ml of saline and immersed in 1% formalin. They were later opened along the greater curvature and the mucosa examined for lesions.
The seriousness of the lesion was quantified according to a scale graduated from 1 to 3 according to the size of the lesions: 1= ulcer < 1mm; 2= ulcer 1-2mm; 3= ulcer > 2mm. The total sum was divided by 10 to obtain the "erosion index". The gastric lesions were evaluated by two independent investigators under blind conditions according to Main & Whittle method (BJ Pharmac 1975:53; p. 217-224).
Since the average daily dose in man (for the anti-inflammatory activity) is 600 mg, the comparative efficacious dose in the rat is in the ratio of 12:1. More precisely, comparative evaluation with the other NSAID compounds was calculated as follows: 600 mg/die: 50 mg/kg = daily dose of reference NSAID in man: X [formula] where X represents the daily dose of the reference NSAID in rat. This criterion keeps into account the "real" activity ratio in man. In this work the "ratio to rat dosage" has also been included which keeps into account ratios homogeneous to the same animal species. To evaluate the "ratio to rat dosage" the ID50 has been determined using the carrageenin-induced oedema as inflammatory test.
In order to exacerbate possible side effects on the stomach the dosage of amtolmetin guacyl was quadruplicated.

In data set [5] the test system is diuresis. In words: Diuresis in normally hydrated rats. Type of data set: in vivo. As to conditions: normally hydrated rats treated orally for 8 consecutive days (figure 13). As for the experimental part: In the course of various studies conducted on animals to show the lack of renal impairment, a test was carried out to compare the diuresis in normally hydrated rats treated orally for 8 consecutive days with amtolmeting guacyl and diclofenac, which is also a NSAID.

The test system of data set [6] is post-traumatic arthralgia. In words: Clinical trials: analgesic properties in post-traumatic arthralgia. It counts as in vivo, man. The following applies: Amtolmetin guacyl 600mgx2-daily, Diclofenac 50mgx2-daily, 15 patients each. The source says: The same can be said in the treatment of post-traumatic arthralgia.
Data set [7] concerns gastric mucosa. In words: Histological evaluation of the gastric mucosa by an independent laboratory. The following applies: single animals; oral gavage: amtolmetin guacyl 50 mg/kg, diclofenac 7.5 mg/kg, tolmetin 66.6 mg/kg.
Procedure: In order to obtain a histological evaluation of the results obtained in our laboratories, an independent laboratory was provided with identical samples of the material evaluated by us, under totally blind conditions.
Controls received the vehicle only, also by oral gavage. 4 h after the final administration the animals were killed by ether overdose and the stomachs removed, rinsed in saline and immersed in formalin 4%.

In the case of `CN1C(C(=O)Nc2ccccn2)=C(O)c2ccccc2S1(=O)=O` [Piroxicam, piroxicam], the “Ratio to rat dosage (mg/kg) (ID50 mg/kg x5)” value in data set [1] stood at 13.8 mg/kg. For the same molecule, the “protection against bone loss” value in data set [2] is reported as “greatest protection against bone loss”.
`CN/C(=N/CCSCc1nc[nH]c1C)NC#N` [Cimetidine, cimetidine, reference compound]: the “% inhib.” value in data set [3] is recorded as 78.6%. Also, the “Δacid” value in data set [3] (mean±S.E.) was found to be 14.3 ± 7.2 nmol/min.
`O=C(O)Cc1ccccc1Nc1c(Cl)cccc1Cl` [Diclofenac sodium, diclofenac sodium]: in data set [4], the “further gastric findings (table footnotes)” value is given as “Each value is the mean of 6 rats. ^a)Diffuse haemorrhagic gastritis was also present”. For the same molecule, the “Ratio to rat dosage (mg/kg) (ID50 mg/kg x5)” value in data set [1] is 15.8 mg/kg. Further, in data set [5], the diuresis entry was “clear decrease”. Besides, in data set [6], the “Duration” value stood at 180 min, the “Latency” value was found to be 20 min and the “Max. time effect” value is 60 min. For the same molecule, in data set [7], the Macroscopic findings is 2 and 4 and 7; the Microscopic findings is 2* and 3* and 9*.
The molecule `Cc1ccc(C(=O)c2ccc(CC(=O)O)n2C)cc1` [Tolmetin, tolmetin] returned a Gastrolesive index in data set [4] of 79.7. In addition, in data set [7], the Macroscopic findings was 3 and 0 (2×); the Microscopic findings was 2+ and 0+ and 1+.
